{"source": "patent US20220396586A1", "about": "“THIAZOLE CARBOXAMIDE COMPOUNDS AND USE THEREOF FOR THE TREATMENT OF MYCOBACTERIAL INFECTIONS” (THE GLOBAL ALLIANCE FOR TB DRUG DEVELOPMENT, INC., priority 2019, published 2022)", "key": {"M. tb H37Rv": {"system": "M. tb H37Rv", "experiment": "MIC determination against M. tb H37Rv (MIC-MABA)", "type": "cell-based, Mycobacterium tuberculosis", "details": "7H9 broth, 10 days exposure, MIC = lowest concentration inhibiting fluorescence by 90%; for MIC: Mycobacterium tuberculosis, H37RV, 240 h, read-out: M. tb H37Rv: MIC-MABA, M. tb H37Rv"}, "M. ab_ATCC": {"system": "M. ab_ATCC", "experiment": "MIC against Mycobacterium abscessus (M. ab_ATCC, MHII), procedure of Franz 2017", "type": "cell-based", "details": "Mycobacteroides abscessus, Mycobacterium abscessus ATCC", "description": "The procedure described in Franz 2017 was used to generate the data shown in column 2 of Table 1."}}}
{"compound": "C[Si]1(C)CCCC(NC(=O)c2cc3sc(-c4ccccc4)nc3[nH]2)CC1", "note": "(single isomer, unassigned) [MPL-357B, N-(1,1-dimethylsilepan-4-yl)-2-phenyl-4H-pyrrolo[2,3-d]thiazole-5-carboxamide]", "values": [{"measurement": "M. tb H37Rv: MIC-MABA", "setting": "M. tb H37Rv", "value": 0.110, "unit": "µg/mL"}]}
{"compound": "Cc1nc2cc(C(=O)N[C@H]3C[C@H]4C[C@@H]([C@@H]3C)C4(C)C)[nH]c2s1", "note": "[MPL-090, 2-methyl-N-((1S,2S,3S,5R)-2,6,6-trimethylbicyclo[3.1.1]heptan-3-yl)-4H-pyrrolo[3,2-d]thiazole-5-carboxamide]", "values": [{"measurement": "MIC", "setting": "M. ab_ATCC", "value": "> 64", "unit": "µg/mL"}, {"measurement": "MIC", "setting": "M. tb H37Rv", "value": 3.2, "unit": "µg/mL"}]}
{"compound": "O=C(NC1CCCCCCC1)c1cc2sc(C3CC3)nc2[nH]1", "note": "[MPL-142, N-cyclooctyl-2-cyclopropyl-4H-pyrrolo[2,3-d]thiazole-5-carboxamide]", "values": [{"measurement": "MIC", "setting": "M. ab_ATCC", "value": "> 64", "unit": "µg/mL"}, {"measurement": "MIC", "setting": "M. tb H37Rv", "value": 0.93, "unit": "µg/mL"}]}
{"compound": "C[Si]1(C)CCC(NC(=O)c2cc3sc(-c4ccncc4)nc3[nH]2)CC1", "note": "[MPL-370, N-(1,1-dimethylsilinan-4-yl)-2-(4-pyridyl)-4H-pyrrolo[2,3-d]thiazole-5-carboxamide]", "values": [{"measurement": "MIC", "setting": "M. ab_ATCC", "value": "> 64", "unit": "µg/mL"}, {"measurement": "MIC", "setting": "M. tb H37Rv", "value": 0.574, "unit": "µg/mL"}]}
{"compound": "Cc1c(C(=O)NC2CC[Si]3(CCCCC3)CC2)[nH]c2nc(-c3ccccc3)sc12", "note": "[MPL-431, 6-methyl-2-phenyl-N-(6-silaspiro[5.5]undecan-3-yl)-4H-pyrrolo[2,3-d]thiazole-5-carboxamide]", "values": [{"measurement": "MIC", "setting": "M. ab_ATCC", "value": "> 64", "unit": "µg/mL"}, {"measurement": "MIC", "setting": "M. tb H37Rv", "value": 0.021, "unit": "µg/mL"}]}
{"compound": "Cc1c(C(=O)NC2CC[Si](C)(C)CC2)[nH]c2sc(C(C)C)nc12", "note": "[MPL-312, N-(1,1-dimethylsilinan-4-yl)-2-isopropyl-6-methyl-4H-pyrrolo[3,2-d]thiazole-5-carboxamide]", "values": [{"measurement": "MIC", "setting": "M. ab_ATCC", "value": "> 64", "unit": "µg/mL"}, {"measurement": "MIC", "setting": "M. tb H37Rv", "value": 0.498, "unit": "µg/mL"}]}
{"compound": "Cc1c(C(=O)NC2CCCCCCC2)[nH]c2nc(C3CC3)sc12", "note": "[MPL-291, N-cyclooctyl-2-cyclopropyl-6-methyl-4H-pyrrolo[2,3-d]thiazole-5-carboxamide]", "values": [{"measurement": "MIC", "setting": "M. ab_ATCC", "value": "> 64", "unit": "µg/mL"}, {"measurement": "MIC", "setting": "M. tb H37Rv", "value": 0.372, "unit": "µg/mL"}]}
{"compound": "C[C@@H]1[C@@H](NC(=O)c2cc3sc(C4CC4)nc3[nH]2)C[C@H]2C[C@@H]1C2(C)C", "note": "[MPL-144, 2-cyclopropyl-N-((1S,2S,3S,5R)-2,6,6-trimethylbicyclo[3.1.1]heptan-3-yl)-4H-pyrrolo[2,3-d]thiazole-5-carboxamide]", "values": [{"measurement": "MIC", "setting": "M. ab_ATCC", "value": "> 64", "unit": "µg/mL"}, {"measurement": "MIC", "setting": "M. tb H37Rv", "value": 1.5, "unit": "µg/mL"}]}
{"compound": "COc1ccccc1-c1nc2[nH]c(C(=O)NC3CC[Si](C)(C)CC3)cc2s1", "note": "[MPL-372, N-(1,1-dimethylsilinan-4-yl)-2-(2-methoxyphenyl)-4H-pyrrolo[2,3-d]thiazole-5-carboxamide]", "values": [{"measurement": "MIC", "setting": "M. ab_ATCC", "value": "> 64", "unit": "µg/mL"}, {"measurement": "MIC", "setting": "M. tb H37Rv", "value": 0.138, "unit": "µg/mL"}]}
{"compound": "COc1nc2[nH]c(C(=O)NC3CCC(C)(C)CC3)cc2s1", "note": "[MPL-456, N-(4,4-dimethylcyclohexyl)-2-methoxy-4H-pyrrolo[2,3-d]thiazole-5-carboxamide]", "values": [{"measurement": "MIC", "setting": "M. ab_ATCC", "value": 1, "unit": "µg/mL"}, {"measurement": "MIC", "setting": "M. tb H37Rv", "value": 0.317, "unit": "µg/mL"}]}
{"compound": "C[Si]1(C)CCCC(NC(=O)c2cc3sc(C4CC4)nc3[nH]2)CCC1", "note": "[MPL-304, 2-cyclopropyl-N-(1,1-dimethylsilocan-5-yl) -4H-pyrrolo[2,3-d]thiazole-5-carboxamide]", "values": [{"measurement": "MIC", "setting": "M. ab_ATCC", "value": "> 64", "unit": "µg/mL"}, {"measurement": "MIC", "setting": "M. tb H37Rv", "value": 0.291, "unit": "µg/mL"}]}
{"compound": "C[Si]1(C)CCC(NC(=O)c2cc3sc(C4CCCC4)nc3[nH]2)CC1", "note": "[MPL-474, 2-cyclopentyl-N-(1,1-dimethylsilinan-4-yl)-4H-pyrrolo[2,3-d] thiazole-5-carboxamide]", "values": [{"measurement": "MIC", "setting": "M. ab_ATCC", "value": "> 64", "unit": "µg/mL"}, {"measurement": "MIC", "setting": "M. tb H37Rv", "value": 0.061, "unit": "µg/mL"}]}
{"compound": "C[C@@H]1[C@@H](NC(=O)c2cc3scnc3[nH]2)C[C@H]2C[C@@H]1C2(C)C", "note": "[MPL-026, N-[(1S,2S,3S,5R)-2,6,6-trimethylnorpinan-3-yl]-4H-pyrrolo[2,3-d]thiazole-5-carboxamide]", "values": [{"measurement": "MIC", "setting": "M. tb H37Rv", "value": 3.1, "unit": "µg/mL"}]}
{"compound": "C[Si]1(C)CCC(NC(=O)c2cc3sc(-c4ccccc4)nc3[nH]2)CC1", "note": "[MPL-308, N-(1,1-dimethylsilinan-4-yl)-2-phenyl-4H-pyrrolo[2,3-d]thiazole-5-carboxamide]", "values": [{"measurement": "MIC", "setting": "M. ab_ATCC", "value": "> 64", "unit": "µg/mL"}, {"measurement": "MIC", "setting": "M. tb H37Rv", "value": 0.007, "unit": "µg/mL"}]}
{"compound": "Cc1c(C(=O)NC2CCCC[Si](C)(C)CC2)[nH]c2nc(C3CC3)sc12", "note": "(centres unmarked) [MPL-293, 2-cyclopropyl-N-(1,1-dimethylsilocan-4-yl)-6-methyl-4H-pyrrolo [2,3-d]thiazole-5-carboxamide]", "values": [{"measurement": "MIC", "setting": "M. ab_ATCC", "value": "> 64", "unit": "µg/mL"}, {"measurement": "MIC", "setting": "M. tb H37Rv", "value": 0.062, "unit": "µg/mL"}]}
{"compound": "CC1CCC(NC(=O)c2cc3sc(-c4ccccc4)nc3[nH]2)CC1", "note": "(single isomer, unassigned) [MPL-433A, N-(4-methylcyclohexyl)-2-phenyl-4H-pyrrolo[2,3-d]thiazole-5-carboxamide]", "values": [{"measurement": "MIC", "setting": "M. tb H37Rv", "value": "> 1", "unit": "µg/mL"}]}
{"compound": "COc1nc2cc(C(=O)NC3CC[Si](C)(C)CC3)[nH]c2s1", "note": "[MPL-313, N-(1,1-dimethylsilinan-4-yl)-2-methoxy-4H-pyrrolo[3,2-d]thiazole-5-carboxamide]", "values": [{"measurement": "MIC", "setting": "M. ab_ATCC", "value": "> 64", "unit": "µg/mL"}, {"measurement": "MIC", "setting": "M. tb H37Rv", "value": 0.254, "unit": "µg/mL"}]}
{"compound": "CC(C)(C)c1ccc(-c2nc3[nH]c(C(=O)NC4CC[Si]5(CCCCC5)CC4)cc3s2)cc1", "note": "[MPL-426, 2-(4-tert-butylphenyl)-N-(6-silaspiro[5.5]undecan-3-yl)-4H-pyrrolo[2,3-d]thiazole-5-carboxamide]", "values": [{"measurement": "MIC", "setting": "M. tb H37Rv", "value": 0.12, "unit": "µg/mL"}]}
{"compound": "Cc1nc2[nH]c(C(=O)N[C@H]3C[C@H]4C[C@@H]([C@@H]3C)C4(C)C)cc2s1", "note": "[MPL-025, 2-methyl-N-[(1S,2S,3S,5R)-2,6,6-trimethylnorpinan-3-yl]-4H-pyrrolo[2,3-d]thiazole-5-carboxamide]", "values": [{"measurement": "MIC", "setting": "M. ab_ATCC", "value": 4, "unit": "µg/mL"}, {"measurement": "MIC", "setting": "M. tb H37Rv", "value": 0.71, "unit": "µg/mL"}]}
{"compound": "C[Si]1(C)CCCC(NC(=O)c2cc3sc(OC4CCC4)nc3[nH]2)CC1", "note": "(centres unmarked) [MPL-475, 2-(cyclobutoxy)-N-(1,1-dimethylsilepan-4-yl)-4H-pyrrolo[2,3-d]thiazole-5-carboxamide]", "values": [{"measurement": "MIC", "setting": "M. ab_ATCC", "value": 16, "unit": "µg/mL"}, {"measurement": "MIC", "setting": "M. tb H37Rv", "value": 0.046, "unit": "µg/mL"}]}
{"compound": "O=C(NC1CC[Si]2(CCCC2)CC1)c1cc2sc(OC3CCC3)nc2[nH]1", "note": "[MPL-459, 2-(cyclobutoxy)-N-(5-silaspiro[4.5]decan-8-yl)-4H-pyrrolo[2,3-d]thiazole-5-carboxamide]", "values": [{"measurement": "MIC", "setting": "M. ab_ATCC", "value": "> 64", "unit": "µg/mL"}, {"measurement": "MIC", "setting": "M. tb H37Rv", "value": 0.0593, "unit": "µg/mL"}]}
{"compound": "Cc1c(C(=O)NC2CC[Si](C)(C)CC2)[nH]c2nc(C3CC3)sc12", "note": "[MPL-228, 2-cyclopropyl-N-(1,1-dimethylsilinan-4-yl)-6-methyl-4H-pyrrolo[2,3-d]thiazole-5-carboxamide]", "values": [{"measurement": "MIC", "setting": "M. ab_ATCC", "value": "> 64", "unit": "µg/mL"}, {"measurement": "MIC", "setting": "M. tb H37Rv", "value": 0.061, "unit": "µg/mL"}]}
{"compound": "C[Si]1(C)CCC(NC(=O)c2cc3sc(C4CC4)nc3[nH]2)C1", "note": "(centres unmarked) [MPL-297, 2-cyclopropyl-N-(1,1-dimethylsilolan-3-yl)-4H-pyrrolo[2,3-d]thiazole-5-carboxamide]", "values": [{"measurement": "MIC", "setting": "M. ab_ATCC", "value": "> 64", "unit": "µg/mL"}, {"measurement": "MIC", "setting": "M. tb H37Rv", "value": 0.982, "unit": "µg/mL"}]}
{"compound": "CC1(C)CCC(NC(=O)c2cc3scnc3[nH]2)CC1", "note": "[MPL-021, N-(4,4-dimethylcyclohexyl)-4H-pyrrolo[2,3-d]thiazole-5-carboxamide]", "values": [{"measurement": "MIC", "setting": "M. ab_ATCC", "value": "> 64", "unit": "µg/mL"}, {"measurement": "MIC", "setting": "M. tb H37Rv", "value": 1.3, "unit": "µg/mL"}]}
{"compound": "C[Si]1(C)CCCC(NC(=O)c2cc3sc(-c4ccccc4)nc3[nH]2)CC1", "note": "(single isomer, unassigned) [MPL-357A, N-(1,1-dimethylsilepan-4-yl)-2-phenyl-4H-pyrrolo[2,3-d]thiazole-5-carboxamide]", "values": [{"measurement": "M. tb H37Rv: MIC-MABA", "setting": "M. tb H37Rv", "value": 0.007, "unit": "µg/mL"}]}
{"compound": "CC1CCC(NC(=O)c2cc3sc(-c4ccccc4)nc3[nH]2)CC1", "note": "(single isomer, unassigned) [MPL-433B, N-(4-methylcyclohexyl)-2-phenyl-4H-pyrrolo[2,3-d]thiazole-5-carboxamide]", "values": [{"measurement": "M. tb H37Rv: MIC-MABA", "setting": "M. tb H37Rv", "value": 0.69, "unit": "µg/mL"}]}
{"compound": "COc1nc2[nH]c(C(=O)N[C@H]3C[C@H]4C[C@H](C4(C)C)[C@@]3(C)O)cc2s1", "note": "[MPL-457, N-[(1R,2R,3S,5R)-2-hydroxy-2,6,6-trimethyl-norpinan-3-yl]-2-methoxy-4H-pyrrolo[2,3-d]thiazole-5-carboxamide]", "values": [{"measurement": "MIC", "setting": "M. tb H37Rv", "value": "> 1", "unit": "µg/mL"}]}
